Measured values taken from ChEMBL document CHEMBL4257490, “Development of a peptide-based bifunctional chelator conjugated to a cytotoxic drug for the treatment of melanotic melanoma” (Medchemcomm, 2018).

Experiments:
[1] = Drug uptake in kidney of Balb/c mouse allografted with mouse B16F10 cells using 99mTc(CO)3-labeled compound at 4 to 8 MBq, iv measured at 4 hrs by scintigraphic imaging method; type: ADME, organism-based; conditions: in vivo
[2] = Drug uptake in mouse B16F10 cells using 99mTc(CO)3-labeled compound at 15 to 20 MBq/ml after 30 mins by gamma scintillation counting method; type: ADME, cell-based; conditions: b16-f10, 0.5 h
[3] = Drug uptake in liver of Balb/c mouse allografted with mouse B16F10 cells using 99mTc(CO)3-labeled compound at 4 to 8 MBq, iv measured at 4 hrs by scintigraphic imaging method; type: ADME, organism-based; conditions: in vivo
[4] = Drug uptake in muscle of Balb/c mouse allografted with mouse B16F10 cells using 99mTc(CO)3-labeled compound at 10 to 12 MBq/kg, iv measured at 2 hrs; type: ADME, organism-based, Muscle tissue; conditions: in vivo
[5] = Hemolytic activity in rat erythrocytes at 100 uM after 1 hr relative to control; type: ADME, cell-based, Erythrocyte; conditions: read-out: Activity
[6] = Ratio of drug level in tumor to muscle of Balb/c mouse allografted with mouse B16F10 cells using 99mTc(CO)3-labeled compound at 10 to 12 MBq/kg, iv measured at 2 hrs; type: ADME, organism-based, Tumor/tissue; conditions: in vivo
[7] = Drug uptake in spleen of Balb/c mouse allografted with mouse B16F10 cells using 99mTc(CO)3-labeled compound at 10 to 12 MBq/kg, iv measured at 4 hrs; type: ADME, organism-based; conditions: in vivo
[8] = Drug uptake in mouse B16F10 cells using 99mTc(CO)3-labeled compound at 15 to 20 MBq/ml after 240 mins by gamma scintillation counting method; type: ADME, cell-based; conditions: b16-f10, 4 h
[9] = Drug uptake in intestine of Balb/c mouse allografted with mouse B16F10 cells using 99mTc(CO)3-labeled compound at 10 to 12 MBq/kg, iv measured at 4 hrs; type: ADME, organism-based; conditions: in vivo
[10] = Stability in saline assessed as parent compond remaining using 99mTc(CO)3-labeled compound after 24 hrs by TLC method; type: physicochemical; conditions: read-out: Stability
[11] = Drug uptake in stomach of Balb/c mouse allografted with mouse B16F10 cells using 99mTc(CO)3-labeled compound at 10 to 12 MBq/kg, iv measured at 4 hrs; type: ADME, organism-based; conditions: in vivo
[12] = Drug uptake in tumor muscle of Balb/c mouse allografted with mouse B16F10 cells using 99mTc(CO)3-labeled compound at 10 to 12 MBq/kg, iv measured at 4 hrs; type: ADME, organism-based; conditions: in vivo
[13] = Drug uptake in stomach of Balb/c mouse allografted with mouse B16F10 cells using 99mTc(CO)3-labeled compound at 10 to 12 MBq/kg, iv measured at 2 hrs; type: ADME, organism-based; conditions: in vivo
[14] = Drug uptake in urinary bladder of Balb/c mouse allografted with mouse B16F10 cells using 99mTc(CO)3-labeled compound at 4 to 8 MBq, iv measured at 4 hrs by scintigraphic imaging method; type: ADME, organism-based; conditions: in vivo
[15] = Drug uptake in urine of Balb/c mouse allografted with mouse B16F10 cells using 99mTc(CO)3-labeled compound at 10 to 12 MBq/kg, iv measured at 4 hrs; type: ADME, organism-based; conditions: in vivo
[16] = Ratio of drug level in tumor to muscle of Balb/c mouse allografted with mouse B16F10 cells using 99mTc(CO)3-labeled compound at 10 to 12 MBq/kg, iv measured at 4 hrs; type: ADME, organism-based, Tumor/tissue; conditions: in vivo
[17] = Drug uptake in gastrointestinal tract of Balb/c mouse allografted with mouse B16F10 cells using 99mTc(CO)3-labeled compound at 4 to 8 MBq, iv measured at 4 hrs by scintigraphic imaging method; type: ADME, organism-based; conditions: in vivo
[18] = n-Octanol-phosphate buffer partition co-efficient, log P of 99mTc(CO)3-labeled compound at 2 to 3 KBq after 1 min by gamma scintillation counting method; type: physicochemical
[19] = Drug uptake in liver of Balb/c mouse allografted with mouse B16F10 cells using 99mTc(CO)3-labeled compound at 10 to 12 MBq/kg, iv measured at 2 hrs; type: ADME, organism-based; conditions: in vivo
[20] = Drug uptake in kidney of Balb/c mouse allografted with mouse B16F10 cells using 99mTc(CO)3-labeled compound at 10 to 12 MBq/kg, iv measured at 2 hrs; type: ADME, organism-based; conditions: in vivo
[21] = Drug uptake in urine of Balb/c mouse allografted with mouse B16F10 cells using 99mTc(CO)3-labeled compound at 10 to 12 MBq/kg, iv measured at 2 hrs; type: ADME, organism-based; conditions: in vivo
[22] = Drug uptake in heart of Balb/c mouse allografted with mouse B16F10 cells using 99mTc(CO)3-labeled compound at 10 to 12 MBq/kg, iv measured at 4 hrs; type: ADME, organism-based; conditions: in vivo
[23] = Drug uptake in blood of Balb/c mouse allografted with mouse B16F10 cells using 99mTc(CO)3-labeled compound at 10 to 12 MBq/kg, iv measured at 4 hrs; type: ADME, organism-based; conditions: in vivo
[24] = Drug uptake in kidney of Balb/c mouse allografted with mouse B16F10 cells using 99mTc(CO)3-labeled compound at 10 to 12 MBq/kg, iv measured at 4 hrs; type: ADME, organism-based; conditions: in vivo
[25] = Drug uptake in blood of Balb/c mouse allografted with mouse B16F10 cells using 99mTc(CO)3-labeled compound at 10 to 12 MBq/kg, iv measured at 2 hrs; type: ADME, organism-based; conditions: in vivo
[26] = Ratio of drug level in tumor to blood of Balb/c mouse allografted with mouse B16F10 cells using 99mTc(CO)3-labeled compound at 10 to 12 MBq/kg, iv measured at 2 hrs; type: ADME, organism-based, Tumor/tissue
[27] = Drug uptake in tumor of Balb/c mouse allografted with mouse B16F10 cells using 99mTc(CO)3-labeled compound at 4 to 8 MBq, iv measured at 4 hrs by scintigraphic imaging method; type: ADME, organism-based, Neoplasm; conditions: in vivo
[28] = Metabolic stability in rat serum assessed as parent compound remaining using 99mTc(CO)3-labeled compound after 24 hrs by TLC method; type: ADME, cell-free; conditions: read-out: Stability
[29] = Drug uptake in heart of Balb/c mouse allografted with mouse B16F10 cells using 99mTc(CO)3-labeled compound at 10 to 12 MBq/kg, iv measured at 2 hrs; type: ADME, organism-based; conditions: in vivo
[30] = Drug uptake in lung of Balb/c mouse allografted with mouse B16F10 cells using 99mTc(CO)3-labeled compound at 10 to 12 MBq/kg, iv measured at 4 hrs; type: ADME, organism-based; conditions: in vivo
[31] = Drug uptake in liver of Balb/c mouse allografted with mouse B16F10 cells using 99mTc(CO)3-labeled compound at 10 to 12 MBq/kg, iv measured at 4 hrs; type: ADME, organism-based; conditions: in vivo
[32] = Hemolytic activity in rat erythrocytes up to 50 uM after 1 hr relative to control; type: ADME, cell-based, Erythrocyte; conditions: read-out: Activity
[33] = Drug uptake in mouse B16F10 cells using 99mTc(CO)3-labeled compound at 15 to 20 MBq/ml after 240 mins by gamma scintillation counting method relative to total added activity; type: ADME, cell-based; conditions: b16-f10, 4 h
[34] = Drug uptake in muscle of Balb/c mouse allografted with mouse B16F10 cells using 99mTc(CO)3-labeled compound at 10 to 12 MBq/kg, iv measured at 4 hrs; type: ADME, organism-based, Muscle tissue; conditions: in vivo
[35] = Ratio of drug level in tumor to blood of Balb/c mouse allografted with mouse B16F10 cells using 99mTc(CO)3-labeled compound at 10 to 12 MBq/kg, iv measured at 4 hrs; type: ADME, organism-based, Tumor/tissue
[36] = Drug uptake in intestine of Balb/c mouse allografted with mouse B16F10 cells using 99mTc(CO)3-labeled compound at 10 to 12 MBq/kg, iv measured at 2 hrs; type: ADME, organism-based; conditions: in vivo
[37] = Drug uptake in lung of Balb/c mouse allografted with mouse B16F10 cells using 99mTc(CO)3-labeled compound at 10 to 12 MBq/kg, iv measured at 2 hrs; type: ADME, organism-based; conditions: in vivo
[38] = Drug degradation in histidine solution using 99mTc(CO)3-labeled compound after 24 hrs by TLC method; type: physicochemical; conditions: read-out: Drug degradation
[39] = Drug uptake in spleen of Balb/c mouse allografted with mouse B16F10 cells using 99mTc(CO)3-labeled compound at 10 to 12 MBq/kg, iv measured at 2 hrs; type: ADME, organism-based; conditions: in vivo
[40] = Drug uptake in tumor muscle of Balb/c mouse allografted with mouse B16F10 cells using 99mTc(CO)3-labeled compound at 10 to 12 MBq/kg, iv measured at 2 hrs; type: ADME, organism-based; conditions: in vivo
[41] = Drug uptake in mouse B16F10 cells using 99mTc(CO)3-labeled compound at 15 to 20 MBq/ml after 30 mins by gamma scintillation counting method relative to total added activity; type: ADME, cell-based; conditions: b16-f10, 0.5 h

In the case of H-HYKHGK-NH2, the Drug uptake [1] is reported as “Active”, the Drug uptake [2] is reported as 41.41% and the Drug uptake [3] is reported as “Active”. It also gave a Drug uptake [4] of 0.18 % ID/g, a hemolysis at 1 h, 100 µM [5] of 7 to 9% and a Ratio [6] of 10.11. It also gave a Drug uptake [7] of 0.45 % ID/g, a Drug uptake [8] of 83% and a Drug uptake [9] of 8.32 % ID/g. For the same substance, the remaining at 24 h [10] was no less than 92%, the Drug uptake [11] was 0.19 % ID/g and the Drug uptake [12] was 3.01 % ID/g. For the same substance, the Drug uptake [13] was 0.23 % ID/g, the Drug uptake [14] was “Active” and the Drug uptake [15] was 49.26 %ID/ml. For the same substance, the Ratio [16] was 18.81, the Drug uptake [17] was “Active” and the logP at 1 min [18] was -0.978. The Drug uptake [19] was 18.15 % ID/g, the Drug uptake [20] was 17.15 % ID/g and the Drug uptake [21] was 42.15 %ID/ml. The Drug uptake [22] was 0.06 % ID/g, the Drug uptake [23] was 1.65 %ID/ml and the Drug uptake [24] was 15.76 % ID/g. For the same substance, the Drug uptake [25] was 1.88 %ID/ml, the Kp at 2 h [26] was 0.97 and the Drug uptake [27] was “Active”. It also gave a remaining at 24 h [28] of no less than 92%, a Drug uptake [29] of 0.08 % ID/g and a Drug uptake [30] of 0.24 % ID/g. The Drug uptake [31] was 14.64 % ID/g, the hemolysis at 1 h [32] was 5 to 6% and the Drug uptake [33] was 9.59%. It also gave a Drug uptake [34] of 0.16 % ID/g, a Kp at 4 h [35] of 1.82 and a Drug uptake [36] of 7.61 % ID/g. It also gave a Drug uptake [37] of 0.33 % ID/g, a degraded at 24 h [38] of 5% and a Drug uptake [39] of 0.63 % ID/g. It also gave a Drug uptake [40] of 1.83 % ID/g and a Drug uptake [41] of 4.76%.
With H-HYKHGKDGR-NH2 the Drug uptake [1] was “Active”, the Drug uptake [2] was 35.24% and the Drug uptake [3] was “Active”. The Drug uptake [4] was 0.16 % ID/g, the hemolysis at 1 h, 100 µM [5] was 7 to 9% and the Ratio [6] was 5.75. For the same substance, the Drug uptake [7] was 0.54 % ID/g, the Drug uptake [8] was 76% and the Drug uptake [9] was 6.3 % ID/g. For the same substance, the remaining at 24 h [10] was no less than 92%, the Drug uptake [11] was 0.21 % ID/g and the Drug uptake [12] was 1.09 % ID/g. The Drug uptake [13] was 0.29 % ID/g, the Drug uptake [14] was “Active” and the Drug uptake [15] was 45.95 %ID/ml. The Ratio [16] was 7.78, the Drug uptake [17] was “Active” and the logP at 1 min [18] was -1.34. For the same substance, the Drug uptake [19] was 21.17 % ID/g, the Drug uptake [20] was 16.12 % ID/g and the Drug uptake [21] was 41.15 %ID/ml. The Drug uptake [22] was 0.07 % ID/g, the Drug uptake [23] was 1.31 %ID/ml and the Drug uptake [24] was 13.91 % ID/g. For the same substance, the Drug uptake [25] was 1.5 %ID/ml, the Kp at 2 h [26] was 0.61 and the Drug uptake [27] was “Not Active”. For the same substance, the remaining at 24 h [28] was no less than 92%, the Drug uptake [29] was 0.09 % ID/g and the Drug uptake [30] was 0.19 % ID/g. For the same substance, the Drug uptake [31] was 18.89 % ID/g, the hemolysis at 1 h [32] was 5 to 6% and the Drug uptake [33] was 6.11%. For the same substance, the Drug uptake [34] was 0.14 % ID/g, the Kp at 4 h [35] was 0.83 and the Drug uptake [36] was 7.5 % ID/g. The Drug uptake [37] was 0.25 % ID/g, the degraded at 24 h [38] was 5% and the Drug uptake [39] was 0.76 % ID/g. The Drug uptake [40] was 0.92 % ID/g and the Drug uptake [41] was 3.99%.
